In PubChem BioAssay (NCI):
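Dose response: 5 concentrations. Exposure: 48 h. Format: 96-well plates. Endpoint: linear interpolation; highest concentration if not reached. GI50 is the concentration that inhibits growth by half. TGI is the concentration that stops growth completely.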

What was measured:
Experiment in all cases: NCI-60 cell line screen, 48 h
[1] = tested on: A498 renal
[2] = tested on: SN12C renal
[3] = tested on: 786-0 renal
[4] = tested on: SF-295 CNS
[5] = tested on: COLO 205 colon
[6] = tested on: BT-549 breast
[7] = tested on: MCF7 breast
[8] = tested on: OVCAR-8 ovarian
[9] = tested on: KM12 colon
[10] = tested on: IGROV1 ovarian
[11] = tested on: PC-3 prostate
[12] = tested on: SK-MEL-2 melanoma
[13] = tested on: OVCAR-5 ovarian
[14] = tested on: NCI-H226 lung
[15] = tested on: MALME-3M melanoma
[16] = tested on: ACHN renal
[17] = tested on: NCI-H522 lung
[18] = tested on: CAKI-1 renal
[19] = tested on: CCRF-CEM leukemia
[20] = tested on: NCI/ADR-RES ovarian
[21] = tested on: K-562 leukemia
[22] = tested on: MDA-MB-435
[23] = tested on: UO-31 renal
[24] = tested on: UACC-257 melanoma
[25] = tested on: HL-60(TB) leukemia
[26] = tested on: SNB-75 CNS
[27] = tested on: T-47D breast
[28] = tested on: SK-OV-3 ovarian
[29] = tested on: SW-620 colon
[30] = tested on: SNB-19 CNS
[31] = tested on: SK-MEL-5 melanoma
[32] = tested on: SR leukemia
[33] = tested on: SF-539 CNS
[34] = tested on: SK-MEL-28 melanoma
[35] = tested on: UACC-62 melanoma
[36] = tested on: M14 melanoma
[37] = tested on: RPMI-8226 leukemia
[38] = tested on: HOP-92 NSCLC
[39] = tested on: HOP-62 NSCLC
[40] = tested on: SF-268 CNS
[41] = tested on: OVCAR-3 ovarian
[42] = tested on: DU-145 prostate
[43] = tested on: NCI-H23 lung
[44] = tested on: RXF 393 renal
[45] = tested on: MOLT-4 leukemia
[46] = tested on: HS 578T breast

## COc1ccc(-c2ccc(-c3ccc(-c4ccc(C(=N)N)cc4)s3)s2)cc1OC
[1]
  GI50: 11 µM
  TGI: 27.8 µM
[2]
  GI50: 3.6 µM
  TGI: 21.8 µM
[3]
  GI50: 18.4 µM
  TGI: 49.7 µM
[4]
  GI50: 21.2 µM
  TGI: 45.5 µM
[5]
  GI50: 1.37 µM
  TGI: 4.57 µM
[6]
  GI50: 17.3 µM
  TGI: 46.8 µM
[7]
  GI50: 0.39 µM
  TGI: 2.1 µM
[8]
  GI50: 3.76 µM
  TGI: > 100 µM
[9]
  GI50: 0.749 µM
  TGI: 2.16 µM
[10]
  GI50: 0.937 µM
  TGI: 3.78 µM
[11]
  GI50: 2.78 µM
  TGI: 9.39 µM
[12]
  GI50: 19.7 µM
  TGI: 43.5 µM
[13]
  GI50: 1.44 µM
  TGI: 3.6 µM
[14]
  GI50: 18.5 µM
  TGI: 58.4 µM
[15]
  GI50: 13 µM
  TGI: 49.6 µM
[16]
  GI50: 3.79 µM
  TGI: 15.3 µM
[17]
  GI50: 14.1 µM
  TGI: 62.2 µM
[18]
  GI50: 15.1 µM
  TGI: 30.4 µM
[19]
  GI50: 2.24 µM
  TGI: 6.4 µM
[20]
  GI50: 2.51 µM
  TGI: 6.54 µM
[21]
  GI50: 1.9 µM
  TGI: 5.47 µM
[22]
  GI50: 5.32 µM
  TGI: 20.2 µM
[23]
  GI50: 14.4 µM
  TGI: 32.4 µM
[24]
  GI50: 22 µM
  TGI: 54.3 µM
[25]
  GI50: 7.47 µM
  TGI: 28.1 µM
[26]
  GI50: 14.4 µM
  TGI: 31 µM
[27]
  GI50: 3.09 µM
  TGI: 31.8 µM
[28]
  GI50: 14.5 µM
  TGI: 37.3 µM
[29]
  GI50: 0.882 µM
  TGI: 4.2 µM
[30]
  GI50: 3.01 µM
  TGI: 16.6 µM
[31]
  GI50: 14.7 µM
  TGI: 60.2 µM
[32]
  GI50: 1.74 µM
  TGI: 6 µM
[33]
  GI50: 15.4 µM
  TGI: 38.7 µM
[34]
  GI50: 18.1 µM
  TGI: 40.6 µM
[35]
  GI50: 18.4 µM
  TGI: 48 µM
[36]
  GI50: 3.16 µM
  TGI: 11.3 µM
[37]
  GI50: 2.86 µM
  TGI: 13.4 µM
[38]
  GI50: 2.18 µM
  TGI: 6.1 µM
[39]
  GI50: 3.26 µM
  TGI: 17.9 µM
[40]
  GI50: 19.5 µM
  TGI: 50.9 µM
[41]
  GI50: 0.369 µM
  TGI: 1.47 µM
[42]
  GI50: 0.478 µM
  TGI: 2.23 µM
[43]
  GI50: 2.43 µM
  TGI: 6.26 µM
[44]
  GI50: 11.2 µM
  TGI: 34.6 µM
[45]
  GI50: 2.51 µM
  TGI: 6.6 µM
[46]
  GI50: 21.2 µM
  TGI: 48.1 µM
